Data as given in US7265150B1, “Carboxylic acids and carboxylic acid isosteres of N-heterocyclic compounds for vision and memory disorders” (GPI NIL Holdings Inc., priority 1998, dated 2007).
Like-named read-outs stand apart in the source and are kept apart here.

Key:
[1] = Clearance (Table V, Comments); format: in vitro ADME
[2] = test system: retinal ganglion cells and optic nerve axons; assay: Optic nerve transection, 14 or 28 day treatment, evaluated 90 days after transection (Example 6, Table I); format: in vivo, rat; conditions: 90 days after ONT
Text: All eyes and optic nerves stumps were removed.

[3] = test system: retinal ganglion cells, optic nerve axons and myelin; assay: Retinal ischemia (FIG. 1, FIG. 2); format: in vivo, rat; conditions: 10 mg/kg s.c. 1 hour prior to ischemia and 10 mg/kg/day for next four days; 28 days after ischemia
Text: Retinal ganglion cells were retrogradely labeled in adult rats by bilateral injection of fluorogold in their lateral geniculate nuclei. Labeled ganglion cells in the normal rat retina appear as white profiles against the dark background (FIG. 1A). Complete retinal ischemia was produced by infusing normal saline solution into the retinal vitreous cavity of each eye until the intraocular pressure exceeded arterial blood pressure. 28 days after the ischemic episode extensive degeneration of retinal ganglion cell was evidenced by massive reduction in the density of fluorogold labeled cells (FIG. 1B).

aged C57BL/6N-Nia mice = assay: Morris watermaze, spatial learning and memory in aged rodents (Example 19); format: in vivo, mouse; conditions: 10 mg/kg daily; retention testing after 3 weeks of dosing
Text: The Morris watermaze is widely used for assessing spatial memory formation and retention in experimental animals. The test depends on the animal's ability to utilize spatial visual information in order to locate a submerged escape platform in a water tank. It is important that the tank itself be as devoid of specific visual features as possible-thus, it is always circular in shape, the sides are kept smooth and in uniform dull colors and the water is rendered opaque with nontoxic watercolor pigment or powdered milk. This is to ensure that the animal navigates only by the use of more distant visual cues, or by the use of intra-maze cues specifically provided by the experimenter. The tank is filled to a level which forces the animal to swim actively. Normal mice and rats react […] to the swimming part of the test and will climb onto, and remain on, an escape platform from which they are removed to a heated resting cage. If the platform is visible (i.e. above the surface), animals placed in the tank will quickly learn to home in on the platform and climb out onto it. […] Swim Distances (cm) were analyzed in a 7×5 ANOVA including Groups and Blocks (1-5) as factors in the analysis, treating Blocks as a repeated measure.

CN(C)C(=O)N1CCC[C@H]1C(=O)SCCCc1ccccc1 [N]
Clearance ([1]; unit printed as μl/ml): 21.9

CCC(C)(C)C(=O)C(=O)N1CCC[C@H]1C(=O)OCCCc1cccnc1 [GPI 1046]
Clearance [1]: 63.5 µL/min
Distal optic nerve myelin basic protein Density: shrinkage of cross sectional area ([2]; GPI 1046 14 days, compared to sham control): did not protect against shrinkage of the distal stump
Distal optic nerve myelin basic protein Density: myelin loss ([2]; GPI 1046 14 days, cross sectional area multiplied by myelin density): slightly increase the density of myelin
Distal optic nerve myelin basic protein Density: less shrinkage of cross sectional area ([2]; GPI 1046 28 days): prevented cross sectional shrinkage
protection of retinal ganglion cells after retinal ischemia (fluorogold labeled cells) [3]: noticeable protection of a large proportion of the vulnerable ganglion cell population
spatial memory performance (swim distance), retention testing, aged impaired mice vs vehicle (aged C57BL/6N-Nia mice): significantly enhanced spatial memory performance
